For one test, the target named is T1, human GPR119 (Homo sapiens, UniProt Q8TDV5).
T1 construct: expressed in transfected cells
T1 sequence (Q8TDV5 1-335): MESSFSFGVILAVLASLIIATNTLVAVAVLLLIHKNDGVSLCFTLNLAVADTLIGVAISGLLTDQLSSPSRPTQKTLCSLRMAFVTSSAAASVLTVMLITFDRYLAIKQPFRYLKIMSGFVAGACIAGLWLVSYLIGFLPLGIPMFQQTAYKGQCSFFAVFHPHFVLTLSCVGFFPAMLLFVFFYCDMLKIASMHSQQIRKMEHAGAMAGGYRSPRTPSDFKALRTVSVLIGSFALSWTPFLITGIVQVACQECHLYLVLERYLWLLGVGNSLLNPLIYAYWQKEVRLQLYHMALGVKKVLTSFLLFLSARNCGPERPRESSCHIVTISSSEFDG
The test is described as follows: Human GPR119 agonist activity with increase of intracellular cAMP concentration as index (CRE-luciferase reporter assay in hGPR119/CRE-luc/CHO(dhfr-) cells). The test is classed as cell-based. To be noted: 1 μM test compound, 2 hr incubation; luciferase activity with 10 μM N-[4-(methylsulfonyl)phenyl]-5-nitro-6-{4-[4-(trifluoromethoxy)phenoxy]piperidin-1-yl}pyrimidin-4-amine = 100%, DMSO = 0%. The protocol:
Evaluation of Human GPR119 Agonist Activity with Increase of Intracellular Camp Concentration as Index
(1) Construction of Expression Plasmid of Human GPR119 Gene
Using High Fidelity RNA PCR Kit (Takara Bio Inc.), human GPR119 gene was cloned by PCR using cDNA library synthesized from human brain mRNA (Clontech) as a template and synthetic DNA having the following sequence. Primer 1 and Primer 2 were is prepared by adding cleavage sites for Sal I and Nhe I based on the base sequence information of human GPR119 gene.
PCR was performed using Pyrobest DNA polymerase (Takara Bio Inc.). The obtained PCR product was cloned to pUC118 (Takara Bio Inc.), and the base sequence was […] and digested with restriction enzymes Sal I, Nhe I. The obtained DNA fragment was inserted into an animal cell expression vector pAKKO-111H (plasmid same as pAKKO-1.111H described in Biochem. Biophys. Acta, Hinuma, S. et al., 1219, 251-259 (1994)) similarly digested with Sal I, Nhe I, whereby an expression plasmid pAKKO-111H/hGPR119 was prepared.
(2) Construction of Reporter Plasmid
Zeocin resistance gene was cloned by PCR using plasmid pcDNA3.1/Zeo (Invitrogen) as a template, synthetic DNA having the following sequences wherein cleavage sites for restriction enzymes Sal I and BamH I are added to before and after a region containing SV40 Ori and a region containing SV40pA, which are located at the upstream and downstream of Zeocin resistance gene of this plasmid, as a primer set, and KOD polymerase (TOYOBO).
The obtained PCR product was inserted into pCR-BluntII (Invitrogen). A fragment containing a Zeocine resistance gene obtained by digesting the plasmid with restriction enzymes Sal I and BamH I was inserted into plasmid pGL3(R2.2)-Basic Vector (promega) similarly digested with Sal I and Bam HI to give Zeocin resistance plasmid pGL3(R2.2)/Zeocin-Basic Vector.
A reporter plasmid containing 4 cAMP responsive elements (CRE) connected in tandem was prepared using the following 5′-terminal phosphorylated synthetic DNA.
First, a DNA fragment containing a CRE sequence obtained by annealing CRE-Upper and CRE-Lower and elongating with KOD polymerase was inserted into pCR-BluntII to give pCR-BluntII-CRE. A fragment cleaved from pCR-BluntII-CRE with restriction enzymes Kpn I and Hind III was inserted into pGL3(R2.2)/Zeocin-Basic Vector similarly digested with Kpn I and Hind III to give reporter plasmid pGL3(R2.2)/Zeocin-CRE-luc.
(3) Introduction of Human GPR119 Gene and Reporter Gene into CHO(dhfr-) Cells and Acquirement of Expressing Cell
CHO(dhfr-) cells in MEMα (minimum essential medium alpha) (Nikken bio medical laboratory) medium containing 10% fetal bovine serum, 100 U/mL penicillin and 100 μg/mL streptomycin (Invitrogen) were detached by a treatment with trypsin-EDTA (ethylenediaminetetraacetic acid) (Invitrogen), the cells were washed with PBS (Phosphate-buffered saline), centrifuged (1000 rpm, 5 min) and suspended in PBS at a cell density of 1×10^7 cells/mL. Then, DNA was introduced into the cell by a gene pulser (Bio-Rad) under the following conditions. That is, 1×10^7 cells, plasmid pGL3(R2.2)/Zeocin-CRE-luc (15 μg), which was obtained in (2) and linearized with BssH II, and pAKKO-111H (5 μg) were added in a 0.4 cm gap cuvette, and the mixture was electroporated at voltage […], capacitance 950 μF. The cells were placed in the above-mentioned medium, cultured for 24 hr, and the cells were detached and centrifuged. The cells were diluted to 250 cells/well, plated in a 96 well plate (Corning) and cultivated in a CO2 incubator at 37° C. to give a transformant. Then, forskolin was added to the obtained transformant and a strain (CRE-luc/CHO(dhfr-) cell) that induces luciferase expression was selected. […]
For orientation: Reporter assays use an easily measured gene product as a stand-in for the process of interest.
For the molecule `CCc1cnc(N2CCC(Oc3cc(N4CCc5cc(S(C)(=O)=O)ccc54)ncn3)CC2)nc1` [Example 33, 1-(6-{[1-(5-ethylpyrimidin-2-yl)piperidin-4-yl]oxy}pyrimidin-4-yl)-5-(methylsulfonyl)-2,3-dihydro-1H-indole], the “GPR119 agonist activity (%) at 1 μM concentration” value (“GPR119 agonist activity (%)” below) stood at 74%.
Still for that read-out and setting: then `CC(C)OC(=O)N1CCC(n2ccc3c(N4CCc5cc([N+](=O)[O-])ccc54)ncnc32)CC1` [Example 7, 1-methylethyl 4-[4-(5-nitro-2,3-dihydro-1H-indol-1-yl)-7H-pyrrolo[2,3-d]pyrimidin-7-yl]piperidine-1-carboxylate], with 96%; and `CCc1cnc(N2CCC(Oc3cc(N4CCc5cc(C(=O)N6CCOCC6)ccc54)ncn3)CC2)nc1` [Example 27, [1-(6-{[1-(5-ethylpyrimidin-2-yl)piperidin-4-yl]oxy}pyrimidin-4-yl)-2,3-dihydro-1H-indol-5-yl](morpholin-4-yl)methanone], with 77%.
On the same count and under the same terms, the result for `CC(C)OC(=O)N1CCC(Oc2cc(N3CCc4cc(NC(=O)[C@H]5CCCO5)ccc43)ncn2)CC1` [Example 51, isopropyl 4-{[6-(5-{[(2R)-tetrahydrofuran-2-ylcarbonyl]amino}-2,3-dihydro-1H-indol-1-yl)pyrimidin-4-yl]oxy}piperidine-1-carboxylate] reads 83%; that for `CC(C)SC(=O)N1CCC(N(c2cc(N3CCc4cc(S(C)(=O)=O)ccc43)ncn2)C(F)(F)F)CC1` [Example 71, S-(1-methylethyl) 4-[{6-[5-(methylsulfonyl)-2,3-dihydro-1H-indol-1-yl]pyrimidin-4-yl}(trifluoromethyl)amino]piperidine-1-carbothioate], 82%; that for `CCc1noc(N2CCC(Oc3cc(N4CCc5cc(S(C)(=O)=O)ccc54)ncn3)CC2)n1` [Example 41, 1-(6-{[1-(3-ethyl-1,2,4-oxadiazol-5-yl)piperidin-4-yl]oxy}pyrimidin-4-yl)-5-(methylsulfonyl)-2,3-dihydro-1H-indole], 85%.
Turning to `CC(C)(C)OC(=O)N1CC(Cn2ccc3c(N4CCc5cc(S(C)(=O)=O)ccc54)ncnc32)C1` [Example 14, tert-butyl 3-({4-[5-(methylsulfonyl)-2,3-dihydro-1H-indol-1-yl]-7H-pyrrolo[2,3-d]pyrimidin-7-yl}methyl)azetidine-1-carboxylate], the “GPR119 agonist activity (%)” value stood at 82%.
On to `CC(C)OC(=O)N1CCC(N(c2cc(N3CCc4cc(S(C)(=O)=O)ccc43)ncn2)C(F)(F)F)CC1` [Example 70, 1-methylethyl 4-[{6-[5-(methylsulfonyl)-2,3-dihydro-1H-indol-1-yl]pyrimidin-4-yl}(trifluoromethyl)amino]piperidine-1-carboxylate], for which the “GPR119 agonist activity (%)” value was determined as 83%.
For the molecule `CC(C)SC(=O)N1CCC(Oc2cc(N3CCc4cc(NC(=O)C5CCCO5)ccc43)ncn2)CC1` [Example 50, S-(1-methylethyl)4-{[6-(5-{[(2R)-tetrahydrofuran-2-ylcarbonyl]amino}-2,3-dihydro-1H-indol-1-yl)pyrimidin-4-yl]oxy}piperidine-1-carbothioate], the “GPR119 agonist activity (%)” value amounted to 85%.
As for `CC(C)OC(=O)N1CCC(Oc2cc(N3CCc4cc(NC(=O)CO)ccc43)ncn2)CC1` [Example 55, isopropyl 4-[(6-{5-[(hydroxyacetyl)amino]-2,3-dihydro-1H-indol-1-yl}pyrimidin-4-yl)oxy]piperidine-1-carboxylate], the “GPR119 agonist activity (%)” value is listed as 84%.
In the case of `COCC(=O)Nc1ccc2c(c1)CCN2c1cc(OC2CCN(C(=O)SC(C)C)CC2)ncn1` [Example 60, S-(1-methylethyl) 4-[(6-{5-[(methoxyacetyl)amino]-2,3-dihydro-1H-indol-1-yl}pyrimidin-4-yl)oxy]piperidine-1-carbothioate], the “GPR119 agonist activity (%)” value amounted to 81%.
As for `CSC(=O)N1CCC(Oc2cc(N3CCc4cc(S(C)(=O)=O)ccc43)ncn2)CC1` [Example 61, S-methyl 4-({6-[5-(methylsulfonyl)-2,3-dihydro-1H-indol-1-yl]pyrimidin-4-yl}oxy)piperidine-1-carbothioate], the “GPR119 agonist activity (%)” value is reported as 85%.
Still for that read-out and setting: then `COCC(=O)Nc1ccc2c(c1)CCN2c1cc(OC2CCN(C(=O)OC(C)C)CC2)ncn1` [Example 59, isopropyl 4-[(6-{5-[(methoxyacetyl)amino]-2,3-dihydro-1H-indol-1-yl}pyrimidin-4-yl)oxy]piperidine-1-carboxylate], with 77%.
`CCc1cnc(N2CCC(Oc3cc(N4CCc5cc(C(=O)NC(C)CO)ccc54)ncn3)CC2)nc1` (stereo not drawn) [Example 23, 1-(6-{[1-(5-ethylpyrimidin-2-yl)piperidin-4-yl]oxy}pyrimidin-4-yl)-N-(1-hydroxypropan-2-yl)-2,3-dihydro-1H-indole-5-carboxamide]: the “GPR119 agonist activity (%)” value came out at 79%.
As for `CC(C)c1noc(N2CCC(N(c3cc(N4CCc5cc(S(C)(=O)=O)ccc54)ncn3)C(F)(F)F)CC2)n1` [Example 32, N-{1-[3-(1-methylethyl)-1,2,4-oxadiazol-5-yl]piperidin-4-yl}-6-[5-(methylsulfonyl)-2,3-dihydro-1H-indol-1-yl]-N-(trifluoromethyl)pyrimidin-4-amine], the “GPR119 agonist activity (%)” value amounted to 92%.
On to `CC(C)c1noc(N2CCC(Oc3cc(N4CCc5cc(N6CCCC6=O)ccc54)ncn3)CC2)n1` [Example 46, 1-{1-[6-({1-[3-(1-methylethyl)-1,2,4-oxadiazol-5-yl]piperidin-4-yl}oxy)pyrimidin-4-yl]-2,3-dihydro-1H-indol-5-yl}pyrrolidin-2-one], for which the “GPR119 agonist activity (%)” value came to 80%.

The next test relates to male Wistar fatty rats. Description: Oral glucose tolerance test (OGTT), hypoglycemic action. The test is classed as in vivo, rat. Particulars: 10 mg/kg oral, OGTT in WF rats; decrease rate of AUC0-120min with control group as 100%; **p ≦ 0.01 vs control. The method, then: A hypoglycemic action of the compound of the present invention was examined in an oral glucose tolerance test (OGTT) using male Wistar fatty rats (WF rat, TAKEDA RABICS).
First, 22-week-old WF rats fasted overnight were divided into groups (6 per group), and blood samples were collected and used as plasma samples before drug administration (−60 min). Thereafter, 0.5% methylcellulose (control group) and a test compound was orally administered at 10 mg/kg. At 60 min after compound administration, each individual was loaded by oral administration of glucose at 1 g/kg, and the blood was drawn before glucose loading (0 min) and 10, 30, 60 and 120 min after loading. The plasma glucose concentration was measured using L type Waco Glu2 (Wako) and Hitachi automatic analyzer 7080 (Hitachi Instruments Service Co., Ltd.). The 0-120 min area under time curve (AUC0-120min) and the decrease rate when the control group was 100% were calculated from the plasma glucose values measured.
As for `CCc1cnc(N2CCC(Oc3cc(N4CCc5cc(S(C)(=O)=O)ccc54)ncn3)CC2)nc1` [Example 33, 1-(6-{[1-(5-ethylpyrimidin-2-yl)piperidin-4-yl]oxy}pyrimidin-4-yl)-5-(methylsulfonyl)-2,3-dihydro-1H-indole], the “blood glucose lowering rate (%)” value is listed as 23.4** %.

The test is the same for the next values; noted with them: 22-week-old WF rats fasted overnight, 10 mg/kg oral, glucose 1 g/kg oral 60 min after compound; control group 32734.2.
Turning to `CCc1cnc(N2CCC(Oc3cc(N4CCc5cc(S(C)(=O)=O)ccc54)ncn3)CC2)nc1` [Example 33, 1-(6-{[1-(5-ethylpyrimidin-2-yl)piperidin-4-yl]oxy}pyrimidin-4-yl)-5-(methylsulfonyl)-2,3-dihydro-1H-indole], the “plasma glucose AUC0-120 min” value turned out to be 25073.3 mg·min/dL.

(Values after patent US8410089B2, “Fused heterocyclic ring compound” (Takeda Pharmaceutical Company Limited, priority 2009, dated 2013).)
